The values below come from PMC11202142, “Succinimide Derivatives as Acetylcholinesterase Inhibitors—In Silico and In Vitro Studies” (Current Issues in Molecular Biology, 2024).

Data set [1] deals with acetylcholinesterase (AChE) (Homo sapiens, UniProt P22303). The data set is described as follows: Ellman spectrophotometric assay, Lineweaver-Burk kinetics. Format: biochemical. In general terms: In Ellman's method for cholinesterases, released thiocholine reacts with DTNB.
Substrate in data set [2]: CC(=O)SCC[N+](C)(C)C
Nature of the data set: Ellman assay, Km from Lineweaver-Burk plot without inhibitor. The class given is biochemical, Homo sapiens.

For orientation: IC50 means the point on the concentration scale where inhibition reaches its midpoint. Read a high IC50 as weaker potency in that assay. As to `CCC12C(=O)C(CC)(C(c3ccccc3)=C1c1ccccc1)C1C(=O)NC(=O)C12` (stereo not shown) [I, diethyl (I) succinimide derivative], it took 31 ± 3 µM to reach half-maximal inhibition in data set [1] (IC50). Still for that read-out and setting: as for `CC12C(=O)C(C)(C(c3ccccc3)=C1c1ccccc1)C1C(=O)NC(=O)C12` (stereo not shown) [II, dimethyl (II) succinimide derivative], the figure is 29 ± 2 µM.

B1: acetylcholinesterase (AChE) (Homo sapiens) (protein)
chain: EGREDAELLVTVRGGRLRGIRLKTPGGPVSAFLGIPFAEPPMGPRRFLPPEPKQPWSGVVDATTFQSVCYQYVDTLYPGFEGTEMWNPNRELSEDCLYLNVWTPYPRPTSPTPVLVWIYGGGFYSGASSLDVYDGRFLVQAERTVLVSMNYRVGAFGFLALPGSREAPGNVGLLDQRLALQWVQENVAAFGGDPTSVTLFGESAGAASVGMHLLSPPSRGLFHRAVLQSGAPNGPWATVGMGEARRRATQLAHLVGCPPGGTGGNDTELVACLRTRPAQVLVNHEWHVLPQESVFRFSFVPVVDGDFLSDTPEALINAGDFHGLQVLVGVVKDEGSYFLVYGAPGFSKDNESLISRAEFLAGVRVGVPQVSDLAAEAVVLHYTDWLHPEDPARLREALSDVVGDHNVVCPVAQLAGRLAAQGARVYAYVFEHRASTLSWPLWMGVPHGYEIEFIFGIPLDPSRNYTAEEKIFAQRLMRYWANFARTGDPNEPRDPKAPQWPPYTAGAQQYVSLDLRPLEVRRGLRAQACAFWNRFLPKLLSATDTLDEAERQWKAEFHRWSSYMVHWKNQFDHYSKQDRCSDL
In general, Km refers to the substrate concentration at which the rate is half of its maximum. The term Vmax denotes the rate approached at saturating substrate. Turning to B1, in data set [2], the Km came to 960 µM and the maximum rate (Vmax) amounted to 630 µM/min.
